Measured values taken from patent US20040152785A1, “Novel crystal of n-hydroxy-2 (s)-methyl-5-ethoxymethoxy-4(s)-[n-(4-phenoxyphenylcarbonyl)amino] pentanamide, process for their production and medicines containing the crystals as the active ingredient” (priority 2000, published 2004).
One block for each molecule: values may come before it.

What was measured:
[1] = Oral absorption test: capsule formulations given orally to fed beagles, concentration in plasma; type: in vivo; conditions: beagle, 50 mg/kg
Description: The compound of the present invention (2 g), DK ester SS (Daiichi Kogyo Seiyaku) and lactose (2.9 g) were weighed and the mixture was mixed slightly in a mortar and the mixture was filtered through 60 mesh strainer twice to give pharmaceutical powder. The pharmaceutical powder was filled in No.0 gelatin capsule 250 mg/cap each. By this method, capsule formulations containing type-A and type-C crystal were prepared respectively.
A beagle was fed with solid food (240 g) and after 30 minutes above prepared capsules were administered in a stomach using sonde for oral administration and tap water (20 ml) was administered with sonde for oral administration.
After administration, 15 minutes, 30 minutes, 1 hour, 2 hours and 3 hours taken a blood of 1 ml from cephalic vein using heparin dealt syringe. The taken sample was disposed under 12000 rpm for 2 minutes and plasma was separated and the concentration of the compound in plasma (μg/ml) was measured.
The dose given to the beagle was 50 mg/kg and 4 beagles for type-A crystal and 3 beagles for type-C crystal.

[2] = Stability test: preservation of crystal powder, DSC caloric transition (ΔH) and X-ray diffraction; type: physicochemical
Description: Weighing out over approximately 50 mg of type-A crystal powder, it was preserved under the condition of
1) 40° C., 75% RH (relative humidity), unsealed for a month,
2) 40° C., sealed tightly for 6 months.
The type-A crystal preserved under above conditions and another type-A crystal which was preserved at 5° C. were subjected to measurement of differential scanning calorimetry (DSC) and caloric transition (ΔH) per 1 g was calculated from endothermic peak chart (see FIGS. 14-16)
ΔH=peak area/sample weight

[3] = tested on: matrix metalloproteinase; conditions: as disclosed in WO 99/19296; cited from earlier work

AUC ([1]; dog, plasma, po, AUC (area under the blood concentration-time curve), average value, sampling up to 3 hours): 5100 ng·h/mL | Cmax ([1]; dog, plasma, po, plasma, read-out: Cmax (maximum drug concentration), average value): 3600 ng/mL | ΔH (calorie variation of endothermic peak, absolute value) ([2]; 1 month, 40° C.-75% RH, unsealed): 14.80 J/g | ΔH (calorie variation of endothermic peak, absolute value) ([2]; 6 months, 40° C., sealed tightly): 13.41 J/g | crystal stability (crystal transition on preservation) ([2]; 40° C.-75% RH a month and 40° C. 6 months, DSC and X-ray diffraction): stable crystal | ΔH (calorie variation of endothermic peak, absolute value) ([2]; initial (type-A crystal preserved at 5° C.)): 13.40 J/g
SMILES: CCOCOC[C@H](C[C@H](C)C(=O)NO)NC(=O)c1ccc(Oc2ccccc2)cc1 [Type-A crystal, N-hydroxy-2(S)-methyl-5-ethoxymethoxy-4(S)-[N-(4-phenoxyphenylcarbonyl)amino]pentanamide]
concentration in plasma, comparison of crystals [1]: higher concentration in plasma than type-C crystal

Cmax (maximum drug concentration), average value ([1]; plasma): 2000 ng/mL | AUC (area under the blood concentration-time curve), average value ([1]; plasma, sampling up to 3 hours): 3500 ng·h/mL
SMILES: CCOCOC[C@H](C[C@H](C)C(=O)NO)NC(=O)c1ccc(Oc2ccccc2)cc1 [Type-C crystal, N-hydroxy-2(S)-methyl-5-ethoxymethoxy-4(S)-[N-(4-phenoxyphenylcarbonyl)amino]pentanamide, reference compound]

SMILES: CCOCOC[C@H](C[C@H](C)C(=O)NO)NC(=O)c1ccc(Oc2ccccc2)cc1 [compound (I), N-hydroxy-2(S)-methyl-5-ethoxymethoxy-4(S)-[N-(4-phenoxyphenylcarbonyl)amino]pentanamide]
inhibitory activity against matrix metalloproteinase (MMP) [3]: has an inhibitory activity against matrix metalloproteinase
